Measured values as given in PubChem BioAssay (NCI).
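Following 48 hours of exposure in 96-well plates, responses at five concentrations were used to interpolate endpoints linearly. TGI denotes the concentration required for complete inhibition of growth.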

How the values were obtained:
Assay in all cases: DTP human tumour cell line panel, 48 h
HCT-116 colon = tested on: HCT-116 colon
HOP-62 NSCLC = tested on: HOP-62 NSCLC
UACC-62 melanoma = tested on: UACC-62 melanoma
SR leukemia = tested on: SR leukemia
SNB-75 CNS = tested on: SNB-75 CNS
T-47D breast = tested on: T-47D breast
HT29 colon = tested on: HT29 colon
UACC-257 melanoma = tested on: UACC-257 melanoma
HL-60(TB) leukemia = tested on: HL-60(TB) leukemia
SF-268 CNS = tested on: SF-268 CNS
BT-549 breast = tested on: BT-549 breast
SK-OV-3 ovarian = tested on: SK-OV-3 ovarian
ACHN renal = tested on: ACHN renal
SK-MEL-5 melanoma = tested on: SK-MEL-5 melanoma
NCI-H226 lung = tested on: NCI-H226 lung
K-562 leukemia = tested on: K-562 leukemia
HCC-2998 colon = tested on: HCC-2998 colon
SF-295 CNS = tested on: SF-295 CNS
SW-620 colon = tested on: SW-620 colon
COLO 205 colon = tested on: COLO 205 colon
A549 NSCLC = tested on: A549 NSCLC
NCI-H23 lung = tested on: NCI-H23 lung
A498 renal = tested on: A498 renal
PC-3 prostate = tested on: PC-3 prostate
OVCAR-5 ovarian = tested on: OVCAR-5 ovarian
KM12 colon = tested on: KM12 colon
NCI-H460 lung = tested on: NCI-H460 lung
MOLT-4 leukemia = tested on: MOLT-4 leukemia
UO-31 renal = tested on: UO-31 renal
MDA-N = tested on: MDA-N
U251 CNS = tested on: U251 CNS
OVCAR-8 ovarian = tested on: OVCAR-8 ovarian
DU-145 prostate = tested on: DU-145 prostate
CAKI-1 renal = tested on: CAKI-1 renal
786-0 renal = tested on: 786-0 renal
SN12C renal = tested on: SN12C renal
NCI-H522 lung = tested on: NCI-H522 lung
SK-MEL-2 melanoma = tested on: SK-MEL-2 melanoma
HS 578T breast = tested on: HS 578T breast
HCT-15 colon = tested on: HCT-15 colon
IGROV1 ovarian = tested on: IGROV1 ovarian
NCI/ADR-RES ovarian = tested on: NCI/ADR-RES ovarian
OVCAR-3 ovarian = tested on: OVCAR-3 ovarian
M14 melanoma = tested on: M14 melanoma
MALME-3M melanoma = tested on: MALME-3M melanoma
TK-10 renal = tested on: TK-10 renal
CCRF-CEM leukemia = tested on: CCRF-CEM leukemia
MDA-MB-231 breast = tested on: MDA-MB-231 breast
MDA-MB-435 = tested on: MDA-MB-435
MCF7 breast = tested on: MCF7 breast
SF-539 CNS = tested on: SF-539 CNS
SNB-19 CNS = tested on: SNB-19 CNS
SK-MEL-28 melanoma = tested on: SK-MEL-28 melanoma
HOP-92 NSCLC = tested on: HOP-92 NSCLC
LOX IMVI melanoma = tested on: LOX IMVI melanoma
RPMI-8226 leukemia = tested on: RPMI-8226 leukemia
EKVX NSCLC = tested on: EKVX NSCLC
OVCAR-4 ovarian = tested on: OVCAR-4 ovarian

Measured: TGI

CC(CO)(CO)N1C(=O)C2C3c4ccccc4C(c4ccccc43)C2C1=O (configuration not stated)
not listed: HOP-92 NSCLC | LOX IMVI melanoma | RPMI-8226 leukemia | EKVX NSCLC | OVCAR-4 ovarian
> 100 µM: all other assays above

O=C(Nc1ccc(Cl)cc1)/C(=C(/[O-])c1ccc(Br)cc1)[n+]1cccc(-c2ccc(Cl)cc2)n1
6.66 µM: CAKI-1 renal
67.8 µM: TK-10 renal
19.5 µM: SF-268 CNS
14.2 µM: OVCAR-8 ovarian
71.1 µM: SK-MEL-28 melanoma
3.28 µM: MCF7 breast
33.7 µM: SK-OV-3 ovarian
6.83 µM: NCI-H522 lung
21.7 µM: OVCAR-5 ovarian
13 µM: HCT-116 colon
14.3 µM: 786-0 renal
11.2 µM: SF-295 CNS
19.3 µM: EKVX NSCLC
12.3 µM: SK-MEL-2 melanoma
46.1 µM: ACHN renal
51.7 µM: HCT-15 colon
11.3 µM: MALME-3M melanoma
29.4 µM: OVCAR-4 ovarian
16.5 µM: NCI-H460 lung
26.1 µM: SNB-75 CNS
9.04 µM: NCI-H23 lung
22.8 µM: UACC-62 melanoma
8.44 µM: SN12C renal
31.6 µM: NCI/ADR-RES ovarian
14.8 µM: IGROV1 ovarian
9.35 µM: BT-549 breast
29.2 µM: HOP-62 NSCLC
12.9 µM: OVCAR-3 ovarian
18.5 µM: M14 melanoma
42.6 µM: UO-31 renal
25 µM: MDA-MB-435
9.86 µM: KM12 colon
24 µM: HCC-2998 colon
9.65 µM: HS 578T breast
5.14 µM: T-47D breast
not listed: HT29 colon | HL-60(TB) leukemia | NCI-H226 lung | CCRF-CEM leukemia | SF-539 CNS
> 100 µM: all other assays above

CCOP(=O)(OCC)/C(C#N)=C/c1nccn1C
not listed: UACC-62 melanoma | SK-OV-3 ovarian | SK-MEL-5 melanoma | CAKI-1 renal | IGROV1 ovarian | MALME-3M melanoma | OVCAR-4 ovarian
> 100 µM: all other assays above
